In the data set the test system is human maximum recommended daily dose, FDA database. Nature of the data set: DSSTox (FDAMDD) FDA Maximum (Recommended) Daily Dose Database. Particulars: active compounds read low. The method in brief: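 MRDD values come from clinical trials with daily oral dosing, usually for 3–12 months, for the average adult, in mg/day converted to mg/kg-bw/day assuming 60 kg. Antineoplastic mg/m2 doses are divided by 37. Activity score maps log10(1/MRDD mmol) onto 1–100.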

Setting [1] is: TherapeuticCategory: anti inflammatory.
Where [2] appears, read: TherapeuticCategory: antitussive.
Where [3] appears, read: TherapeuticCategory: antibacterial.
Where [4] appears, read: TherapeuticCategory: antidepressant.
The mark [5] stands for this setting: TherapeuticCategory: anticholinergic.
[6] abbreviates: TherapeuticCategory: antihypertensive.
Setting [7] is: TherapeuticCategory: antineoplastic.
[8] abbreviates: TherapeuticCategory: antihypertensive, antianginal, antiarrhythmic.
The mark [9] stands for this setting: TherapeuticCategory: antiulcerative.

The results in this text go back to PubChem BioAssay AID1195 (EPA DSSTox, 2008).

Consider `CCC1(c2ccccc2)C(=O)NC(=O)NC1=O`, for which the maximum recommended daily dose (mmol/kg-bw/day) (TherapeuticCategory: anticonvulsant, sedative, hypnotic) was 0.0093.

As to `NC(N)=NC(N)=NCCc1ccccc1`, under “TherapeuticCategory: antidiabetic”, the maximum recommended daily dose (mmol/kg-bw/day) is 0.00814. As for `CN1c2ccccc2Sc2ccc(CC(=O)O)cc21`, under setting [1], the maximum recommended daily dose (mmol/kg-bw/day) was 0.0461.

For the compound `CCOC(=O)[C@H](CCc1ccccc1)N[C@@H](C)C(=O)N1Cc2ccccc2C[C@H]1C(=O)O`, the maximum recommended daily dose (mmol/kg-bw/day) (TherapeuticCategory: antihypertensive, ACE inhibitor) is 0.00303. For the compound `O=c1[nH]cnc2[nH]ncc12`, the maximum recommended daily dose (mmol/kg-bw/day) (TherapeuticCategory: antiurolithic) is 0.0977. Regarding `CC(CN(C)C)C(C)(O)Cc1ccc(Cl)cc1` (stereo unspecified), the maximum recommended daily dose (mmol/kg-bw/day) under setting [2] is 0.0156. As for `CC(=O)NO`, the maximum recommended daily dose (mmol/kg-bw/day) (TherapeuticCategory: antiurolithic, antibacterial adjunct) is 0.222. Take `CNC[C@H](O)c1ccc(O)c(O)c1`: the maximum recommended daily dose (mmol/kg-bw/day) (TherapeuticCategory: adrenergic, bronchodilator, mydriatic, antiglaucoma) is 9.12e-05. For `CC1=C(C(=O)O)N2C(=O)[C@@H](NC(=O)[C@H](N)c3ccccc3)[C@H]2SC1`, the maximum recommended daily dose (mmol/kg-bw/day) under setting [3] is 0.192. For the compound `CC(=O)O[C@H]1C[C@@H]2CC[C@@H]3[C@H](CC[C@@]4(C)[C@H]3C[C@H]([N+]3(C)CCCCC3)[C@@H]4OC(C)=O)[C@@]2(C)C[C@@H]1[N+]1(C)CCCCC1`, the maximum recommended daily dose (mmol/kg-bw/day) (TherapeuticCategory: skeletal muscle relaxant) is 0.000136.

`OCCN1CCN(CCCN2c3ccccc3C=Cc3ccccc32)CC1`: where the note is “TherapeuticCategory: antidepressant, antipsychotic”, the maximum recommended daily dose (mmol/kg-bw/day) was 0.0138.

Regarding `CC(C)(CO)[C@@H](O)C(=O)NCCC(=O)O`, the maximum recommended daily dose (mmol/kg-bw/day) (TherapeuticCategory: vitamin) was 0.000534. For the compound `CC1(C)S[C@@H]2[C@H](NC(=O)[C@H](N)c3ccc(O)cc3)C(=O)N2[C@H]1C(=O)O`, under setting [3], the maximum recommended daily dose (mmol/kg-bw/day) was 0.0596. `CCc1nn(CCCN2CCN(c3cccc(Cl)c3)CC2)c(=O)n1CC`: under setting [4], the maximum recommended daily dose (mmol/kg-bw/day) was 0.00662. As to `O=C1CCC(N2C(=O)c3ccccc3C2=O)C(=O)N1` (stereo unspecified), under “TherapeuticCategory: sedative, hypnotic”, the maximum recommended daily dose (mmol/kg-bw/day) was 0.0258. On to `CN(C)CC/C=C1\c2ccccc2Sc2ccc(Cl)cc21`, for which the maximum recommended daily dose (mmol/kg-bw/day) (TherapeuticCategory: antipsychotic) is 0.0105.

As to `CN1[C@@H]2CC[C@H]1CC(OC(=O)C(O)c1ccccc1)C2` (stereo partly specified), under setting [5], the maximum recommended daily dose (mmol/kg-bw/day) is 0.0018. For the compound `CN=C(NC)NCc1ccccc1`, under setting [6], the maximum recommended daily dose (mmol/kg-bw/day) was 0.0188. As for `COc1cccc2c1C(=O)c1c(O)c3c(c(O)c1C2=O)C[C@@](O)(/C(C)=N/NC(=O)c1ccccc1)C[C@@H]3O[C@H]1C[C@H](N)[C@H](O)[C@H](C)O1`, under setting [7], the maximum recommended daily dose (mmol/kg-bw/day) was 0.0103. For `CNCC12CCC(c3ccccc31)c1ccccc12`, under “TherapeuticCategory: anxiolytic, skeletal muscle relaxant”, the maximum recommended daily dose (mmol/kg-bw/day) was 0.00401. In the case of `NCCc1cnc[nH]1`, for the setting “TherapeuticCategory: gastrointestinal”, the maximum recommended daily dose (mmol/kg-bw/day) is 0.00013. In the case of `CNC(C)Cc1ccccc1OC` (stereo unspecified), the maximum recommended daily dose (mmol/kg-bw/day) (TherapeuticCategory: bronchodilator) was 0.0558. For `COC(=O)CCc1ccc(OCC(O)CNC(C)C)cc1` (stereo unspecified), the maximum recommended daily dose (mmol/kg-bw/day) (TherapeuticCategory: antiarrhythmic) was 0.000677.

For `OC[C@@H](O)CN1CCN(c2ccccc2)CC1`, under setting [2], the maximum recommended daily dose (mmol/kg-bw/day) is 0.0127. On to `CC(NC(C)(C)C)C(=O)c1cccc(Cl)c1` (stereo unspecified), for which the maximum recommended daily dose (mmol/kg-bw/day) under setting [4] was 0.0313. As for `CC(C)NCC(O)COc1cccc2ccccc12` (stereo unspecified), the maximum recommended daily dose (mmol/kg-bw/day) under setting [8] is 0.0413. As to `CCC1(c2ccccc2)NC(=O)N(C)C1=O` (stereo unspecified), the maximum recommended daily dose (mmol/kg-bw/day) (TherapeuticCategory: anticonvulsant) is 0.0458. As to `COc1cc(C(=O)NC2CCCNC2)cc(OC)c1OC` (stereo unspecified), the maximum recommended daily dose (mmol/kg-bw/day) under setting [9] is 0.017. Turning to `CO[C@@]1(NC(=O)Cc2cccs2)C(=O)N2C(C(=O)O)=C(COC(N)=O)CS[C@@H]21`, the maximum recommended daily dose (mmol/kg-bw/day) under setting [3] is 0.468. On to `OCCN(CCO)CCO`, for which the maximum recommended daily dose (mmol/kg-bw/day) (TherapeuticCategory: analgesic) was 0.067. As to `CCCCNc1ccc(C(=O)OCCOCCOCCOCCOCCOCCOCCOCCOCCOC)cc1`, the maximum recommended daily dose (mmol/kg-bw/day) under setting [2] is 0.0166. As to `C=CC1=C(C(=O)O)N2C(=O)[C@@H](NC(=O)/C(=N\OCC(=O)O)c3csc(N)n3)[C@H]2SC1`, the maximum recommended daily dose (mmol/kg-bw/day) under setting [3] is 0.0293. For the compound `CCN(CC)CCSC(=O)C(c1ccccc1)c1ccccc1`, the maximum recommended daily dose (mmol/kg-bw/day) (TherapeuticCategory: anticholinergic, smooth muscle relaxant) was 0.0153.

As to `CS(=O)(=O)c1ccc([C@@H](O)[C@@H](CO)NC(=O)C(Cl)Cl)cc1`, the maximum recommended daily dose (mmol/kg-bw/day) under setting [3] was 0.14. Take `O=c1[nH]c(=S)[nH]cc1I`: for the setting “TherapeuticCategory: thyroid inhibitor”, the maximum recommended daily dose (mmol/kg-bw/day) is 0.0197. `CCCC(CCC)C(=O)O`: the maximum recommended daily dose (mmol/kg-bw/day) (TherapeuticCategory: anticonvulsant, antiepileptic) is 0.289. For `O=C(CCBr)N1CCN(C(=O)CCBr)CC1`, the maximum recommended daily dose (mmol/kg-bw/day) under setting [7] is 0.00843. Take `C[C@H]1C[C@H]2[C@@H]3CCC4=CC(=O)C=C[C@]4(C)[C@@]3(F)[C@@H](O)C[C@]2(C)[C@@]1(OC(=O)c1ccccc1)C(=O)CO`: for the setting “TherapeuticCategory: glucocorticoid”, the maximum recommended daily dose (mmol/kg-bw/day) is 0.000302. Take `Cc1nccn1CC1CCc2c(c3ccccc3n2C)C1=O` (stereo unspecified): the maximum recommended daily dose (mmol/kg-bw/day) (TherapeuticCategory: antiemetic) is 0.00136. Turning to `C[C@]12CC[C@@H]3c4ccc(O)cc4CC[C@H]3[C@@H]1CC[C@@H]2O`, the maximum recommended daily dose (mmol/kg-bw/day) (TherapeuticCategory: estrogen) is 0.00184. As to `NC(CO)(CO)CO`, the maximum recommended daily dose (mmol/kg-bw/day) (TherapeuticCategory: alkalizer) is 2.48. Consider `COc1cc(C(=O)N2CCOCC2)cc(OC)c1OC`, for which the maximum recommended daily dose (mmol/kg-bw/day) (TherapeuticCategory: sedative) is 0.178. With `C1CNCCN1`, the maximum recommended daily dose (mmol/kg-bw/day) (TherapeuticCategory: anthelmintic) was 0.774. Take `CC(=O)Nc1ccccc1`: the maximum recommended daily dose (mmol/kg-bw/day) (TherapeuticCategory: antipyretic, analgesic) is 0.037. `CC(C)(C)NCC(O)COc1cccc2c1CCCC2=O` (stereo unspecified): the maximum recommended daily dose (mmol/kg-bw/day) (TherapeuticCategory: antiglaucoma) is 0.000858. On to `CC[C@H]1CN2CCc3cc(OC)c(OC)cc3[C@@H]2C[C@@H]1C[C@H]1NCCc2cc(OC)c(OC)cc21`, for which the maximum recommended daily dose (mmol/kg-bw/day) (TherapeuticCategory: antiamebic) is 0.00208. For the compound `C[C@H](CSC(=O)[C@@H](C)NC(=O)C1CCCCC1)C(=O)N1CCC[C@H]1C(=O)O`, the maximum recommended daily dose (mmol/kg-bw/day) under setting [6] was 0.00251.

Regarding `OC(CCN1CCCC1)(c1ccccc1)C1CCCCC1` (stereo unspecified), the maximum recommended daily dose (mmol/kg-bw/day) under setting [5] is 0.00116. On to `CCc1cc(C(N)=S)ccn1`, for which, under setting [3], the maximum recommended daily dose (mmol/kg-bw/day) was 0.1. Same read-out and setting: as for `CC1=C(C(=O)O)N2C(=O)[C@@H](NC(=O)[C@H](N)C3=CCC=CC3)[C@H]2SC1`, the figure is 0.191. On to `C[C@](N)(Cc1ccc(O)c(O)c1)C(=O)O`, for which, under setting [6], the maximum recommended daily dose (mmol/kg-bw/day) is 0.158. For the compound `CC1CCN(CCCC(=O)c2ccc(F)cc2)CC1`, the maximum recommended daily dose (mmol/kg-bw/day) (TherapeuticCategory: neuroleptic) was 0.0253.

For the compound `CC1(C)N=C(N)N=C(N)N1c1ccc(Cl)cc1`, the maximum recommended daily dose (mmol/kg-bw/day) (TherapeuticCategory: antimalarial) is 0.00132. As to `CC[C@H]1OC(=O)[C@H](C)[C@@H](O[C@H]2C[C@@](C)(OC)[C@@H](O)[C@H](C)O2)[C@H](C)[C@@H](O[C@@H]2O[C@H](C)C[C@H](N(C)C)[C@H]2OC(C)=O)[C@](C)(O)C[C@@H](C)C(=O)[C@H](C)[C@@H](O)[C@]1(C)O`, the maximum recommended daily dose (mmol/kg-bw/day) under setting [3] was 0.0629. For the compound `CCC(C)C(C(=O)OC1CCN(C)CC1)c1ccccc1` (stereo unspecified), the maximum recommended daily dose (mmol/kg-bw/day) under setting [5] is 0.00173. Turning to `CC(C)=CCOc1ccc(/C=C/C(=O)c2ccc(OCC=C(C)C)cc2OCC(=O)O)cc1`, under setting [9], the maximum recommended daily dose (mmol/kg-bw/day) is 0.0111. On to `CN(C)CC[C@@H](c1ccc(Br)cc1)c1ccccn1`, for which the maximum recommended daily dose (mmol/kg-bw/day) (TherapeuticCategory: antihistaminic) was 0.00251. On to `CCN1CCCC1CNC(=O)c1cc(S(=O)(=O)CC)ccc1OC` (stereo unspecified), for which the maximum recommended daily dose (mmol/kg-bw/day) under setting [4] is 0.0564. Consider `O=C(O)Cc1sc(-c2ccccc2)nc1-c1ccc(Cl)cc1`, for which the maximum recommended daily dose (mmol/kg-bw/day) under setting [1] was 0.0455. For the compound `CC(C)(C)NC[C@H](O)COc1ccccc1C1CCCC1`, under setting [8], the maximum recommended daily dose (mmol/kg-bw/day) is 0.00456. On to `Cc1cc2c(OCC(CNC(C)(C)C)OC(=O)c3ccccc3)cccc2[nH]1` (stereo unspecified), for which the maximum recommended daily dose (mmol/kg-bw/day) under setting [6] was 4.39e-05.

As to `CCC1NC(=O)c2cc(S(N)(=O)=O)c(Cl)cc2N1` (stereo unspecified), under “TherapeuticCategory: diuretic”, the maximum recommended daily dose (mmol/kg-bw/day) is 0.0115. For the compound `COc1ccc(C[C@@H](C)NC[C@H](O)c2ccc(O)c(NC=O)c2)cc1`, the maximum recommended daily dose (mmol/kg-bw/day) (TherapeuticCategory: antiasthmatic) was 0.00775. Consider `CC1(C)S[C@@H]2[C@H](N=CN3CCCCCC3)C(=O)N2[C@H]1C(=O)O`, for which the maximum recommended daily dose (mmol/kg-bw/day) under setting [3] was 0.0461. In the case of `CNNCc1ccc(C(=O)NC(C)C)cc1`, the maximum recommended daily dose (mmol/kg-bw/day) under setting [7] was 0.0271. Same read-out and setting: as for `CN(C)/N=N/c1nc[nH]c1C(N)=O`, the figure is 0.0247. Regarding `CC(=O)Oc1cc(C(C)C)c(OCCN(C)C)cc1C`, the maximum recommended daily dose (mmol/kg-bw/day) (TherapeuticCategory: vasodilator) is 0.0191.

On to `C[C@H]1O[C@@H](O[C@H]2[C@@H](O)C[C@H](O[C@H]3[C@@H](O)C[C@H](O[C@H]4CC[C@@]5(C)[C@H](CC[C@@H]6[C@@H]5C[C@@H](O)[C@]5(C)[C@@H](C7=CC(=O)OC7)CC[C@]65O)C4)O[C@@H]3C)O[C@@H]2C)C[C@H](O)[C@@H]1O`, for which the maximum recommended daily dose (mmol/kg-bw/day) (TherapeuticCategory: cardiotonic) is 1.28e-08. Take `COc1cc(N)c(Cl)cc1C(=O)NC1CCN(Cc2ccccc2)CC1`: the maximum recommended daily dose (mmol/kg-bw/day) (TherapeuticCategory: antiemetic, antispasmodic) was 6.69e-05.

`COc1ccc2c3c1O[C@H]1C(=O)CC[C@H]4[C@@H](C2)N(C)CC[C@]314`: the maximum recommended daily dose (mmol/kg-bw/day) (TherapeuticCategory: analgesic) is 0.00251. The same measure, in the same setting: as for `COc1ccc2c(c1)N(C[C@H](C)CN(C)C)c1ccccc1S2`, the figure is 0.0101.
